Assay results as given in patent US20060069132A1, “Azolecarboxamide herbicides” (priority 2004, published 2006).

Legend:
[1] = system: yellow nutsedge; test: Test C pre-/postemergence herbicide test; type: in vivo, Cyperus esculentus; conditions: preemergence; for Plant response rating (0 = no effect, 100 = complete control), Nutsedge, Yellow: 125 g ai/ha
In short: (§1)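 Visual injury scores run from 0 (no effect) to 100 (complete control), assessed relative to untreated controls 12 to 14 days after treatment in the greenhouse. Chemicals were formulated in a non-phytotoxic solvent mixture with surfactant and applied to soil after planting or to emerged plants at the 1- to 4-leaf stage.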

[2] = system: eastern black nightshade; test: Test C pre-/postemergence herbicide test; type: in vivo, Solanum ptycanthum; conditions: preemergence; for Plant response rating (0 = no effect, 100 = complete control), Nightshade: 125 g ai/ha
Excerpt: Seeds of plant species selected from bermudagrass (Cynodon dactylon (L.) Pers.), Surinam grass (Urochloa decumbens (Staph) R. D. Webster, previously named Brachiaria decumbens Stapf), cocklebur (Xanthium strumarium L.), corn (Zea mays L.), large crabgrass (Digitaria sanguinalis (L.) Scop.), woolly cupgrass (Eriochloa villosa (Thunb.) Kunth), giant foxtail (Setaria faberi Herrm.), goosegrass (Eleusine indica (L.) Gaertn.), johnsongrass (Sorghum halepense (L.) Pers.), kochia (Kochia scoparia (L.) Schrad.), lambsquarters (Chenopodium album L.), morningglory (Ipomoea coccinea L.), eastern black nightshade (Solanum ptycanthum Dunal), yellow nutsedge (Cyperus esculentus L.), pigweed (Amaranthus retroflexus L.), common ragweed (Ambrosia elatior L.), soybean (Glycine max (L.) Merr.), common (oilseed) sunflower (Helianthus annuus L.) and velvetleaf (Abutilon theophrasti Medik.) were planted and treated preemergence with test chemicals formulated in a non-phytotoxic solvent mixture which included a surfactant.
At the same time, plants selected from these crop and weed species and also winter barley (Hordeum vulgare L.), blackgrass (Alopecurus myosuroides Huds.), canarygrass (Phalaris minor Retz.), chickweed (Stellaria media (L.) Vill.), downy bromegrass (Bromus tectorum L.), green foxtail (Setaria viridis (L.) Beauv.), Italian ryegrass (Lolium multiflorum Lam.), wheat (Triticum aestivum L.), wild oat (Avenafatua L.) and windgrass (Apera spica-venti (L.) Beauv.) were treated with postemergence applications of some of the test chemicals formulated in the same manner. Plants ranged in height from 2 to 18 cm (1- to 4-leaf stage) for postemergence treatments. Plant species in the flooded paddy test consisted of rice (Oryza sativa), smallflower umbrella sedge (Cyperus difformis L.), ducksalad (Heteranthera limosa (Sw.) Willd.) and barnyardgrass (Echinochloa crus-galli (L.) Beauv.) grown to the 2-leaf stage for testing. Treated plants and controls were maintained in a greenhouse for 12 to 14 days, after which time all species were compared to controls and visually evaluated. Plant response ratings, summarized in Table C, are based on a scale of 0 to 100 where 0 is no effect and 100 is complete control. A dash (-) response means no test result.

[3] = system: smallflower umbrella sedge; test: Test C flooded paddy test; type: in vivo, Cyperus difformis; conditions: for Plant response rating, Sedge, Umbrella: 500 g ai/ha, visual rating after 12 to 14 days
[4] = system: goosegrass; test: Test C pre-/postemergence herbicide test; type: in vivo, Eleusine indica; conditions: preemergence; for Plant response rating (0 = no effect, 100 = complete control), Goosegrass: 125 g ai/ha
In short: as §1

[5] = system: rice; test: Test C flooded paddy test; type: in vivo, Oryza sativa; conditions: for Plant response rating, Rice: 500 g ai/ha, visual rating after 12 to 14 days
In short: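 Plants were grown to the 1- to 4-leaf stage (2–18 cm) and then treated postemergence, or grown to the 2-leaf stage for the flooded paddy test. They were held in a greenhouse for 12 to 14 days and then scored by eye against controls, where 0 is no effect and 100 is complete control.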

[6] = system: soybean; test: Test C pre-/postemergence herbicide test; type: in vivo, Glycine max; conditions: preemergence; for Plant response rating (0 = no effect, 100 = complete control), Soybean: 125 g ai/ha
In short: as §1

[7] = 500 g ai/ha, scale 0 to 100 (0 no effect, 100 complete control), visual, 12 to 14 days
[8] = 125 g ai/ha, scale 0 to 100 (0 no effect, 100 complete control)
[9] = 250 g ai/ha, scale of 0 to 100, 0 is no effect, 100 is complete control
[10] = scale 0 to 100 (0 no effect, 100 complete control)

SMILES	Plant response rating, Nutsedge, Yellow ([1]; 62 g ai/ha, scale 0 to 100)	Plant response rating (0 = no effect, 100 = complete control), Nutsedge, Yellow [1]	Plant response rating, Nutsedge, Yellow [1, 7]	Plant response rating, Nightshade ([2]; 62 g ai/ha, scale 0 to 100)	Plant response rating (0 = no effect, 100 = complete control), Nightshade [2]	Plant response rating, Nightshade [2, 7]	Sedge, Umbrella plant response rating ([3]; 62 g ai/ha, scale 0 to 100)	Sedge, Umbrella plant response rating [3, 8]	Sedge, Umbrella plant response rating [3, 9]	Plant response rating, Sedge, Umbrella [3, 10]	Plant response rating, Goosegrass ([4]; 62 g ai/ha, scale 0 to 100)	Plant response rating (0 = no effect, 100 = complete control), Goosegrass [4]	Plant response rating, Goosegrass ([4]; 250 g ai/ha, scale 0-100)	Plant response rating, Goosegrass [4, 7]	Rice plant response rating ([5]; 62 g ai/ha, scale 0 to 100)	Rice plant response rating [5, 8]	Rice plant response rating [5, 9]	Plant response rating, Soybean ([6]; 62 g ai/ha, scale 0 to 100)	Plant response rating (0 = no effect, 100 = complete control), Soybean [6]	Plant response rating, Soybean [6, 7]	also measured
CCc1nn(C(C)C)nc1C(=O)Nc1cccc(C(=O)N(C)CC)c1 [Compound 386]	0	10	60	90	95	100	65	75	80	80	85	95	95	95	25	65	70	90	90	95	Plant response rating, Nutsedge, Yellow ([1]; 250 g ai/ha, scale 0-100): 40; Plant response rating, Nightshade ([2]; 250 g ai/ha, scale 0-100): 95; Plant response rating, Rice [5, 10]: 75; Plant response rating, Soybean ([6]; 250 g ai/ha, scale 0-100): 95
CCc1nn(C(C)C)nc1C(=O)Nc1cccc(C(=S)N(C)C)c1 [Compound 409]	0	0	55	45	85	95	70	75	85	90	80	90	95	95	20	40	50	0	80	100	Plant response rating, Rice [5, 10]: 60
Cc1nn(C(C)(C)C)nc1C(=O)Nc1cccc(C(=S)N(C)C)c1 [Compound 419]	0	0	0	85	95	100	–	–	–	–	45	95	100	100	–	–	–	40	85	95	–
CCNC(=S)c1cccc(NC(=O)c2nn(C(C)(C)C)nc2C)c1 [Compound 420]	0	0	25	80	90	100	–	–	–	–	95	95	100	100	–	–	–	0	10	85	–
